From patent publication US11472803B2, “7-substituted 1-aryl-naphthyridine-3-carboxylic acid amides and use thereof” (Bayer Aktiengesellschaft, priority 2016, dated 2022)

Target: T1, human M2 receptor (Homo sapiens, UniProt P08172)
T1 construct: expressed in transfected cells; host or cells: CHO-DUKX (CHO-DUKX-M2-GIRK)
T1 sequence (P08172 1-466): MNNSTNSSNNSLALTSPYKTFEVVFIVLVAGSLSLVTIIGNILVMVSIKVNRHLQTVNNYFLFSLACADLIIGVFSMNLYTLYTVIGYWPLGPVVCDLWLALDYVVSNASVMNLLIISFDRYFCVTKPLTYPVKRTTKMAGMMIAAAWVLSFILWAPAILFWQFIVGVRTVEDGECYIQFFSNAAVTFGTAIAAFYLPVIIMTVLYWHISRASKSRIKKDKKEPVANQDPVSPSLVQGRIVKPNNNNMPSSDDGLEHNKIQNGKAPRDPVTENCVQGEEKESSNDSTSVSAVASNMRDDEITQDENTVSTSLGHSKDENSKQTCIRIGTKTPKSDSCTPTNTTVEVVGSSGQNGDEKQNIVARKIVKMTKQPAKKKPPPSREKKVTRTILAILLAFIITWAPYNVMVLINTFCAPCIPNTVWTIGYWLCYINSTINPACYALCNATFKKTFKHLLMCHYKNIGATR
Experiment: Functional M2-GIRK1/4 activation test: allosteric potency (EC50) and efficiency at EC20 acetylcholine
Format: cell-based
Details: CHO-DUKX-M2-GIRK cells; for EC50: voltage-sensitive dye, acetylcholine at EC20, in some cases mean of two or more determinations; for Emax: boosting of the acetylcholine effect at EC20 acetylcholine concentration
Summary of the method: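 Positive allosteric modulation measured as boosting of an EC20 acetylcholine response: hyperpolarization via GIRK1/4 in CHO-DUKX-M2-GIRK cells, monitored by membrane-potential dye fluorescence over 60 s after agonist, compound preadded. Hill-function fit gives EC50 and efficiency.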

Structure (SMILES) | EC50 | Emax
O=C(Nc1c(Cl)cccc1Cl)c1cn(-c2ccc(F)cc2F)c2ncc(Cl)cc2c1=O [Example 133, 6-Chloro-N-(2,6-dichlorophenyl)-1-(2,4-difluorophenyl)-4-oxo-1,4-dihydro-1,8-naphthyridine-3-carboxamide] | 1600 nM | 81%
O=C(N[C@@H](C1CC1)C(F)(F)F)c1cn(-c2c(F)cc(F)cc2F)c2nc(N3CCOCC3)c(F)cc2c1=O [Example 147, N-[(1S)-Cyclopropyl-2,2,2-trifluoroethyl]-6-fluoro-7-(morpholin-4-yl)-4-oxo-1-(2,4,6-trifluorophenyl)-1,4-dihydro-1,8-naphthyridine-3-carboxamide] | 16 nM | 94%
CC(C)(NC(=O)c1cn(-c2c(F)cc(F)cc2F)c2nc(N3CCOCC3)c(F)cc2c1=O)C(F)(F)F [Example 149, 6-Fluoro-7-(morpholin-4-yl)-4-oxo-N-(1,1,1-trifluoro-2-methylpropan-2-yl)-1-(2,4,6-trifluorophenyl)-1,4-dihydro-1,8-naphthyridine-3-carboxamide] | 21 nM | 92%
CC(C)(NC(=O)c1cn(-c2c(F)cc(F)cc2F)c2nc(N3CCOCC3)c(F)cc2c1=O)C(F)F [Example 150, N-(1,1-Difluoro-2-methylpropan-2-yl)-6-fluoro-7-(morpholin-4-yl)-4-oxo-1-(2,4,6-trifluoro-phenyl)-1,4-dihydro-1,8-naphthyridine-3-carboxamide] | 24 nM | 93%
CC[C@H](NC(=O)c1cn(-c2c(F)cc(F)cc2F)c2nc(N3CCOCC3)c(F)cc2c1=O)C(F)(F)F [Example 151, 6-Fluoro-7-(morpholin-4-yl)-4-oxo-N-[(2S)-1,1,1-trifluorobutan-2-yl]-1-(2,4,6-trifluoro-phenyl)-1,4-dihydro-1,8-naphthyridine-3-carboxamide] | 24 nM | 100%
CC[C@H](NC(=O)c1cn(-c2ncc(F)cc2F)c2nc(N3CC[C@H](O)C3)c(F)cc2c1=O)C(F)(F)F [Example 152, 1-(3,5-Difluoropyridin-2-yl)-6-fluoro-7-[(3S)-3-hydroxypyrrolidin-1-yl]-4-oxo-N-[(2S)-1,1,1-trifluorobutan-2-yl]-1,4-dihydro-1,8-naphthyridine-3-carboxamide] | 53 nM | 100%
O=C(N[C@@H](C1CC1)C(F)(F)F)c1cn(-c2ncc(F)cc2F)c2nc(N3CC[C@H](O)C3)c(F)cc2c1=O [Example 153, N-[(1S)-1-Cyclopropyl-2,2,2-trifluoroethyl]-1-(3,5-difluoropyridin-2-yl)-6-fluoro-7-[(3S)-3-hydroxypyrrolidin-1-yl]-4-oxo-1,4-dihydro-1,8-naphthyridine-3-carboxamide] | 48 nM | 99%
CC(C)(NC(=O)c1cn(-c2ncc(F)cc2F)c2nc(N3CC[C@H](O)C3)c(F)cc2c1=O)C(F)(F)F [Example 154, 1-(3,5-Difluoropyridin-2-yl)-6-fluoro-7-[(3S)-3-hydroxypyrrolidin-1-yl]-4-oxo-N-(1,1,1-tri-fluoro-2-methylpropan-2-yl)-1,4-dihydro-1,8-naphthyridine-3-carboxamide] | 97 nM | 100%
Cc1cc(F)cc(C)c1-n1cc(C(=O)N[C@@H](C2CC2)C(F)(F)F)c(=O)c2cc(F)c(N3C[C@@H](O)[C@H](O)C3)nc21 [Example 175, N-[(1S)-1-Cyclopropyl-2,2,2-trifluoroethyl]-7-[(3R,4R)-3,4-dihydroxypyrrolidin-1-yl]-6-fluoro-1-(4-fluoro-2,6-dimethylphenyl)-4-oxo-1,4-dihydro-1,8-naphthyridine-3-carboxamide] | 73 nM | 83%
CN1CCN(c2nc3c(cc2F)c(=O)c(C(=O)N[C@@H](C2CC2)C(F)(F)F)cn3-c2c(F)cc(F)cc2F)C(CO)C1 (stereo partly drawn) [Example 176, N-[(1S)-1-Cyclopropyl-2,2,2-trifluoroethyl]-6-fluoro-7-[2-(hydroxymethyl)-4-methylpiperazin-1-yl]-4-oxo-1-(2,4,6-trifluorophenyl)-1,4-dihydro-1,8-naphthyridine-3-carboxamide] | 110 nM | 91%
Cc1cc(F)cc(C)c1-n1cc(C(=O)N[C@H](C2CC2)C(F)(F)F)c(=O)c2cc(F)c(N3C[C@@H](O)CC3=O)nc21 [Example 177, N-[(1R)-1-Cyclopropyl-2,2,2-trifluoroethyl]-6-fluoro-1-(4-fluoro-2,6-dimethylphenyl)-7-[(4S)-4-hydroxy-2-oxopyrrolidin-1-yl]-4-oxo-1,4-dihydro-1,8-naphthyridine-3-carboxamide] | 530 nM | 77%
CC[C@H](NC(=O)c1cn(-c2c(F)cc(F)cc2F)c2nc(N3C[C@H](O)[C@@H](O)C3)c(F)cc2c1=O)C(F)(F)F [Example 178, 7-[(3S,4S)-3,4-Dihydroxypyrrolidin-1-yl]-6-fluoro-4-oxo-N-[(2S)-1,1,1-trifluorobutan-2-yl]-1-(2,4,6-trifluorophenyl)-1,4-dihydro-1,8-naphthyridine-3-carboxamide] | 17 nM | 99%
CN1CCN(c2nc3c(cc2F)c(=O)c(C(=O)N[C@@H](C2CC2)C(F)(F)F)cn3-c2c(F)cc(F)cc2F)CC1CO (stereo partly drawn) [Example 179, N-[(1S)-1-Cyclopropyl-2,2,2-trifluoroethyl]-6-fluoro-7-[3-(hydroxymethyl)-4-methylpiperazin-1-yl]-4-oxo-1-(2,4,6-trifluorophenyl)-1,4-dihydro-1,8-naphthyridine-3-carboxamide] | 27 nM | 100%

The next molecules have a lower EC50 than those just listed; values first:

EC50 | Emax | Structure (SMILES)
13 nM | 83% | CC(NC(=O)c1cn(-c2c(F)cc(F)cc2F)c2nc(N3CCC(O)C(O)C3)c(F)cc2c1=O)C(F)(F)C(F)(F)F (stereo not drawn) [Example 181, 7-(3,4-Dihydroxypiperidin-1-yl)-6-fluoro-4-oxo-N-(3,3,4,4,4-pentafluorobutan-2-yl)-1-(2,4,6-trifluorophenyl)-1,4-dihydro-1,8-naphthyridine-3-carboxamide]
11 nM | 100% | CC[C@@H](NC(=O)c1cn(-c2c(F)cc(F)cc2F)c2nc(N3C[C@@H](O)[C@@H](O)C3)c(F)cc2c1=O)C(F)(F)F [Example 155, 7-[(3R,4S)-3,4-Dihydroxypyrrolidin-1-yl]-6-fluoro-4-oxo-N-[(2R)-1,1,1-trifluorobutan-2-yl]-1-(2,4,6-trifluorophenyl)-1,4-dihydro-1,8-naphthyridine-3-carboxamide]
11 nM | 100% | CC[C@@H](NC(=O)c1cn(-c2c(F)cc(F)cc2F)c2nc(N3C[C@H](O)[C@@H](O)C3)c(F)cc2c1=O)C(F)(F)F [Example 156, 7-[(3S,4S)-3,4-Dihydroxypyrrolidin-1-yl]-6-fluoro-4-oxo-N-[(2R)-1,1,1-trifluorobutan-2-yl]-1-(2,4,6-trifluorophenyl)-1,4-dihydro-1,8-naphthyridine-3-carboxamide]
8.5 nM | 86% | CN(C)c1nc2c(cc1F)c(=O)c(C(=O)NC(C(F)(F)F)C(F)(F)F)cn2-c1c(F)cc(F)cc1Cl [Example 180, 1-(2-Chloro-4,6-difluorophenyl)-7-(dimethylamino)-6-fluoro-N-(1,1,1,3,3,3-hexafluoropropan-2-yl)-4-oxo-1,4-dihydro-1,8-naphthyridine-3-carboxamide]
7.4 nM | 95% | C[C@H](NC(=O)c1cn(-c2c(F)cc(F)cc2F)c2nc(N3C[C@@H](O)[C@H](O)C3)c(F)cc2c1=O)c1ccccc1 [Example 167, 7-[(3R,4R)-3,4-Dihydroxypyrrolidin-1-yl]-6-fluoro-4-oxo-N-[(1S)-1-phenylethyl]-1-(2,4,6-tri-fluorophenyl)-1,4-dihydro-1,8-naphthyridine-3-carboxamide]
3.7 nM | 100% | CC(NC(=O)c1cn(-c2c(F)cc(F)cc2F)c2nc(N3C[C@@H](O)[C@H](O)C3)c(Br)cc2c1=O)C(F)(F)C(F)(F)F (stereo partly drawn) [Example 158, 6-Bromo-7-[(3R,4R)-3,4-dihydroxypyrrolidin-1-yl]-4-oxo-N-[3,3,4,4,4-pentafluorobutan-2-yl]-1-(2,4,6-trifluorophenyl)-1,4-dihydro-1,8-naphthyridine-3-carboxamide]
3.4 nM | 97% | CC(C)(NC(=O)c1cn(-c2c(F)cc(F)cc2Cl)c2nc(N3C[C@@H](O)[C@H](O)C3)c(F)cc2c1=O)C(F)F [Example 141, 1-(2-Chloro-4,6-difluorophenyl)-N-(1,1-difluoro-2-methylpropan-2-yl)-7-[(3R,4R)-3,4-dihydroxypyrrolidin-1-yl]-6-fluoro-4-oxo-1,4-dihydro-1,8-naphthyridine-3-carboxamide]
2.8 nM | 84% | CC(C)C(NC(=O)c1cn(-c2c(F)cc(F)cc2Cl)c2nc(N3C[C@@H](O)[C@H](O)C3)c(F)cc2c1=O)C(F)(F)F (stereo partly drawn) [Example 136, 1-(2-Chloro-4,6-difluorophenyl)-7-[(3R,4R)-3,4-dihydroxypyrrolidin-1-yl]-6-fluoro-4-oxo-N-[1,1,1-trifluoro-3-methylbutan-2-yl]-1,4-dihydro-1,8-naphthyridine-3-carboxamide]
